Assay results: patent publication US7078407B2, “4-hydroxycinnamamide derivatives as antioxidants and pharmaceutical compositions containing them” (Korea Research Institute of Chemical Technology, priority 2001, dated 2006)

How the values were obtained:
[1] = test system: lipid peroxidation in brain homogeneous substance; experiment: Antioxidation activation test: lipid peroxidation assay (TBARS/MDA) in brain homogenate with FeCl2/ascorbic acid; type: biochemical, SD rat; details: for IC50: 50% inhibitory concentration of lipid peroxidation (TBARS at 520 nm), rat brain homogenate, FeCl2/ascorbic acid; for antioxidation activity increased compared with the prior antioxidation activator BHT: relative to BHT IC50 of Table 4
Procedure: After decapitating a SD rat (male, 10–12 weeks old) and rapidly extracting the brain, 10 mM Tris-HCl buffer solution (pH 7.4) containing 150 mM KCl is added to 10 ml/brain and homogenated. Then, the homogenated brain mixture is centrifuged for 10 minutes at 2,200 rpm, 4° C., and the upper layer is collected through protein assay. The exact amount of protein is measured and kept at −20° C.
250 μl of brain homogeneous substance (5 mg protein/ml), 10 μl of sample substance, 20 μl of buffer solution is divided at the 96-well micro plate one by one, and cultured for 20 minutes at 37° C. under a shaking condition. Then, 10 μl of 20 μM FeCl2 and 250 μM ascorbic acid is respectively added to the mixture and cultured for 30 minutes at 37° C. After completing the reaction by adding 50 μl of 35% HClO4 to the mixture, the micro plate is centrifuged for 10 minutes at 2,000 rpm, 4° C., and only the upper layer is transferred to the 96-well micro plate in an amount of 240 μl, and then, 120 μl of TBA (thiabarbituric acid; 5 mg/ml in 50% acetic acid) is added to the mixture. After reacting the micro plate for an hour at 80° C., it is cooled at room temperature, and the optical density of the thus obtained TBARS (thiobarbituric acid reactive substances, MDA) is measured at 520 nm.
The assay response curve of TBARS obtained using tetraethoxypropane, a reaction substance of TBA is used in calculating the amount of reaction product MDA of the sample substance, and the oxidation inhibition effect of the test drug is obtained by the following equation 1. Further, the 50% inhibitory concentration (IC50) is obtained using the dose response curve.
wherein, A is the concentration (nmol) of the control protein (MDA/mg), and
B is the concentration (nmol) of the experiment protein (MDA/mg).

Row | IC50 [1] | melting point | SMILES | antioxidation activity increased compared with the prior antioxidation activator BHT [1]
1 | 490 nM |  | CCCOc1cc(/C=C/C(=O)N2CCN(c3ccc(NC(=N)c4cccs4)cc3)CC2)cc(OCCC)c1O [Example 18, N-(4-{4-[3-(4-hydroxy-3,5-dipropoxy-phenyl)-acryloyl]-piperazine-1-yl}-phenyl)-thiophene-2-carboxamidine] | 
2 | 260 nM |  | CCCCCCOc1cc(C=CC(=O)N2CCN(CC(O)c3ccc(F)cc3)CC2)cc(OCCCCCC)c1O (stereo not shown) [Example 12, 3-(3,5-bis-hexyloxy-4-hydroxyphenyl)-1-{4-[2-(4-fluorophenyl)-2-hydroxyethyl]piperazine-1-yl}propenone] | 88%
3 | 510 nM |  | CC(C)(C)c1cc(/C=C/C(=O)N2CCN(c3ccc(NC(=N)c4cccs4)cc3)CC2)cc(C(C)(C)C)c1O [Example 16, N-(4-(4-[3-(3,5-di-t-butyl-4-hydroxy-phenyl)-acryloyl]-piperizine-lyl}-phenyl)-thiophene-2-carboxamidine] | 
4 | 450 nM | 109 to 116 °C | CCCCCOc1cc(/C=C/C(=O)N2CCN(c3ccc(NC(=N)c4ccc[nH]4)cc3)CC2)cc(OCCCCC)c1O [Example 23, N-(4-{4-[3-(4-hydroxy-3,5-bis-penyloxy-phenyl)-acryloyl]-piperazine-1-yl}-phenyl)-1H-pyrrole-2-carboxamidine] | 
5 |  | 149 to 167 °C | CC(C)(C)c1cc(/C=C/C(=O)N2CCN(c3ccc(NC(=N)c4ccc[nH]4)cc3)CC2)cc(C(C)(C)C)c1O [Example 21, N-(4-{4-[3-(3,5-di-t-butyl-4-hydroxy-phenyl)-acryloyl]-piperazine-1-yl}-phenyl)-1H-pyrrole-2-carboxamidine] | 
6 |  | 100 to 145 °C | CCCCCCCOc1cc(/C=C/C(=O)N2CCN(c3ccc(NC(=N)c4ccc[nH]4)cc3)CC2)cc(OCCCCCCC)c1O [Example 24, N-(4-{4-[3-(3,5-bis-heptyloxy-4-hydroxy-phenyl)-acryloyl]-piperazine-1-yl}-phenyl)-1H-pyrrole-2-carboxamidine] | 
7 |  | 137 to 140 °C | CCCCCCOc1cc(/C=C/C(=O)Nc2ccccc2O)cc(OCCCCCC)c1O [Example 6, 3-(3,5-bishexyloxy-4-hydroxyphenyl)-N-(2-hydroxyphenyl)acrylamide] | 
8 | 470 nM | 170 to 171 °C | CCC(CC)Oc1cc(/C=C/C(=O)N2CCN(c3ccc(NC(=N)c4cccs4)cc3)CC2)cc(OC(CC)CC)c1O [Example 17] | 

More lines, now with the values behind:

Row | SMILES | IC50 [1] | melting point | antioxidation activity increased compared with the prior antioxidation activator BHT [1]
9 | CCC(CC)Oc1cc(/C=C/C(=O)NCc2cc(C(C)(C)C)c(O)c(C(C)(C)C)c2)cc(OC(CC)CC)c1O [Example 4, 3-[3,5-bis-(1-ethylpropoxy)-4-hydroxyphenyl]-N-(3,5-di-t-butyl-4-hydroxybenzyl)acrylamide] |  | 75 to 80 °C | 
10 | Cc1cc(C(C)(C)C)c(O)c(C(C)(C)C)c1 [BHT, tert-butyl-hydroxytoluene, reference compound] | 2090 nM |  | 
11 | CCCCOc1cc(/C=C/C(=O)N2CCN(c3ccc(NC(=N)c4cccs4)cc3)CC2)cc(OCCCC)c1O [Example 19, N-(4-{4-[3-(3,5-dibutoxy-4-hydroxy-phenyl)-acryloyl]-piperazine-1-yl}-phenyl)-thiophene-2-carboxamidine] |  | 99 to 102 °C | 82%
12 | CCCCOc1cc(CCC(=O)N2CCN(CC(O)c3ccc(Cl)cc3)CC2)cc(OCCCC)c1O (stereo not shown) [Example 15, 1-{4-[2-(4-chlorophenyl)-2-hydroxyethyl]piperazine-1-yl}-3-(3,5-dibutoxy-4-hydroxyphenyl)propane-1-one] | 910 nM |  | 56%
13 | CCCCOc1cc(/C=C/C(=O)NCCc2cc(C(C)(C)C)c(O)c(C(C)(C)C)c2)cc(OCCCC)c1O [Example 1, 3-(3,5-dibutoxy-4-hydroxyphenyl)-N-[2-(3,5-di-t-butyl-4-hydroxyphenyl)ethyl]acrylamide] |  | 82 to 85 °C | 
14 | CCCCCCCCCOc1cc(CN2CCN(CC(O)c3ccc(Cl)cc3)CC2)cc(OCCCCCCCCC)c1O (stereo not shown) [Example 8, 4-{4-[2-(4-chlorophenyl)-2-hydroethyl]piperazine-1-ylmethyl}-2,6-bis-nonyloxyphenol] | 1530 nM |  | 27%
15 | CCCCOc1cc(/C=C/C(=O)N2CCN(c3ccc(NC(=N)c4ccc[nH]4)cc3)CC2)cc(OCCCC)c1O [Example 22, N-(4-{4-[3-(3,5-dibutoxy-4-hydroxy-phenyl)-acryloyl]-piperazine-1-yl}-phenyl)-1H-pyrrole-2-carboxamidine] | 370 nM |  | 82%
